In US20130004580A1, “DIVALENT CATION/TALC CONTAINING COMPOSITIONS AND METHODS FOR TREATING AND/OR PREVENTING ENZYMATIC IRRITATION” (priority 2011, published 2013):

Experiments:
Assay type in all cases: biochemical
[1] = test system: trypsin; experiment: Trypsin inhibition, EnzChek protease assay, mixtures of talc with divalent cation salts
Protocol: The objective of the following experiment was to determine whether and to what extent adding a divalent cation to talc inhibited trypsin activity in an in vitro assay. The inhibition of trypsin-induced cleavage of a fluorescent casein peptide was measured using the EnzChek™ protease assay kit, following manufacturer's instructions (EnzChek™ Protease Assay Kits Product Information, Revised; Molecular Probes, Eugene Oreg.). […] Trypsin working solution (Sigma, St. Louis, Mo., unit/mL) was prepared in digestion buffer provided in the assay kit. Stock solution of BODIPY FL casein (trypsin substrate, mg/mL) was prepared by adding 0.2 mL to the substrate vials (provided in kit), and the final substrate working solution (10 microgram/mL) was prepared by dilution in digestion buffer (pH 7.8). Following incubation of the trypsin, with or without the test materials, with the BODIPY fluorescent casein substrate, at room temperature for one hour, fluorescence was measured (excitation 485 nm/emission 530 nm) using a SpectraMax microtiter plate reader (Molecular Devices Corporation, Sunnyvale, Calif.) and Softmax Pro software (Molecular Devices Corporation). Each experiment was performed in three replicates.

[2] = test system: trypsin; experiment: Trypsin inhibition, EnzChek protease assay, zinc oxide/acid mixtures and formulations; conditions: text b134 on Table 5
Protocol: The objective of the following experiment was to determine whether and to what extent adding an acid to a formulation containing zinc oxide had on inhibition of trypsin activity in an in vitro assay. The inhibition of trypsin-induced cleavage of a fluorescent casein peptide was measured using the EnzChek™ protease assay kit, following manufacturer's instructions (EnzChek™ Protease Assay Kits Product Information, Revised; Molecular Probes, Eugene Oreg.). Briefly, mixtures of zinc oxide and acid at different concentrations were prepared in 1×PBS (pH 7.4) and their pH was recorded as listed in the Tables 5-8. Trypsin working solution (Sigma, St. Louis, Mo., unit/mL) was prepared in digestion buffer provided in the assay kit. Stock solution of BODIPY FL casein (trypsin substrate, mg/mL) was prepared by adding 0.2 mL to the substrate vials (provided in kit), and the final substrate working solution (10 microgram/mL) was prepared by dilution in digestion buffer (pH 7.8). Following incubation of the trypsin, with or without the test materials (50 μl), with the BODIPY fluorescent casein substrate, at room temperature for one hour, fluorescence was measured (excitation 485 nm/emission 530 nm) using a SpectraMax microtiter plate reader (Molecular Devices Corporation, Sunnyvale, Calif.) and Softmax Pro software (Molecular Devices Corporation). Each experiment was performed in three replicates. […]

[3] = test system: trypsin; experiment: Trypsin inhibition, EnzChek protease assay (BODIPY FL casein cleavage), cation salts; conditions: Table 1
Protocol: The inhibition of trypsin-induced cleavage of a fluorescent casein peptide was measured using the EnzChek™ protease assay kit, following manufacturer's instructions (EnzChek™ Protease Assay Kits Product Information, Revised; Molecular Probes, Eugene Oreg.). Briefly, test materials at different concentrations were prepared in 1× phosphate buffered saline (PBS, pH 7.4). Trypsin working solution (Sigma, St. Louis, Mo., unit/mL) was prepared in digestion buffer provided in the assay kit. Stock solution of BODIPY FL casein (trypsin substrate, mg/mL) was prepared by adding 0.2 mL to the substrate vials (provided in kit), and the final substrate working solution (10 microgram/mL) was prepared by dilution in digestion buffer (pH 7.8). […] Each experiment was performed in three replicates.

Compound: CC(=O)[O-].CC(=O)[O-].O.[Ca+2] [Calcium acetate monohydrate]
- Salt alone, trypsin inhibition activities (%) ([1]; Table 3, 0.1% (g/mL)): 15.31%

Compound: [Ca+2].[Cl-].[Cl-] [Calcium chloride]
- Salt alone, trypsin inhibition activities (%) ([1]; Table 3, 0.1% (g/mL)): 17.95%

Compound: O.O.O.O.[Cl][Fe][Cl] [Iron (II) chloride tetrahydrate]
- Salt alone, trypsin inhibition activities (%) ([1]; Table 3, 0.1% (g/mL)): 65.07%

Compound: CC(=O)[O-].CC(=O)[O-].O.O.O.O.[Mg+2] [Magnesium acetate tetrahydrate]
- Salt alone, trypsin inhibition activities (%) ([1]; Table 3, 0.1% (g/mL)): 0.83%

Compound: [Cl-].[Cl-].[Mg+2] [Magnesium chloride]
- Salt alone, trypsin inhibition activities (%) ([1]; Table 3, 0.1% (g/mL)): 4.75%
- Salt alone, trypsin inhibition activities (%) ([1]; Table 4, 0.1% MgCl2 (g/mL)): 9.02%
- With 1% Talc, trypsin inhibition activities (%) ([1]; Table 4, 0.1% MgCl2 with 1% talc (g/mL)): 25.43%
- Salt alone, trypsin inhibition activities (%) ([1]; Table 4, 0.5% MgCl2 (g/mL)): 19.51%
- With 1% Talc, trypsin inhibition activities (%) ([1]; Table 4, 0.5% MgCl2 with 1% talc (g/mL)): 32.84%
- Salt alone, trypsin inhibition activities (%) ([1]; Table 4, 1% MgCl2 (g/mL)): 22.13%
- With 1% Talc, trypsin inhibition activities (%) ([1]; Table 4, 1% MgCl2 with 1% talc (g/mL)): 40.42%
- trypsin inhibitory activity, in words ([1]; text b102 on Table 4): moderate to low levels of trypsin inhibitory activity

Compound: CC(=O)[O-].CC(=O)[O-].[Zn+2] [Zinc acetate dihydrate]
- Salt alone, trypsin inhibition activities (%) ([1]; Table 3, 0.1% (g/mL)): 62.84%

Compound: [Cl-].[Cl-].[Zn+2] [Zinc chloride]
- Salt alone, trypsin inhibition activities (%) ([1]; Table 3, 0.1% (g/mL)): 81.07%

Compound: [O]=[Zn] [ZnO, zinc oxide]
- trypsin inhibitory activity, in words [2]: minimal protease activity

Compound: copper (II) chloride [(II) chloride dihydrate]
- % trypsin inhibitory activity ([3]; concentration 0.01% (g/mL)): 64.98%
- % trypsin inhibitory activity ([3]; concentration 0.10% (g/mL)): 99.34%
- % trypsin inhibitory activity ([3]; concentration 1% (g/mL)): 108.34%
